Assay results: patent US11912697B1, “1,3-benzothiazol-2-yl-N′-[(pyridine-3-carbonyl)oxy]ethanimidamide as an antitumor and antimicrobial compound” (King Faisal University, priority 2023, dated 2024)
Each block holds one compound with its values, some of them ahead of it.

What was measured:
[1] = test system: human osteosarcoma cells (MG-63); assay: Cytotoxicity by SRB assay, MG-63 cells; assay type: cell-based; conditions: for IC50: mean ± SD
Description: (§1) The human prostate cancer cells (PC3) and human osteosarcoma cells (MG-63) were obtained from Nawah Scientific Inc. (Mokatam, Cairo, Egypt) and cultured in DMEM (Dulbecco's modified eagle's medium), Gibco, USA, supplemented with fetal bovine serum (FBS) at a concentration of 10% and 100 U/mL of penicillin and streptomycin (PS). The Cells were incubated at 37° C. in a humidified environment that contained 5% CO2.
(§2) Cells were seeded in 96-well plates as aliquots of 100 μL cell suspension and incubated in a complete media for 24 h. Afterward, cells were treated with N′-[(2-chlorobenzoyl)oxy]-1,3-benzothiazole-2-carboximidamide at diverse concentrations ranging from 0.01 μM to 100 μM for 72 h. Then, cells were fixed at 4° C. for one hour with 150 μL of 10% trichloroacetic acid (TCA). After washing the cells five times with distilled water, 70 μL of sulforhodamine (SRB) solution (0.4% w/v) was added and incubated for 10 min at room temperature in a dark place. Cells were washed with 1% acetic acid three times and allowed to air-dry. Then, 150 μL of Tris pH 10.5 (10 mM) was added, and the absorbance was measured at 540 nm using a BMG LABTECH®-FLUOstar Omega microplate reader (Ortenberg, Germany). Half maximal inhibitory concentrations (IC50) values were calculated for each experiment using GraphPad Prism 6 software. IC50 values were reported as mean […] SD.
(§3) The inhibition was calculated using the following equation: Inhibition %=100−Average Viability

[2] = test system: human prostate cancer cells (PC3); assay: Cytotoxicity by SRB assay, PC3 cells; assay type: cell-based; conditions: PC-3 cells; for IC50: mean ± SD
Description: as §1, §2, §3

[3] = test system: Bacillus cereus, Staphylococcus aureus, Pseudomonas aeruginosa, Escherichia coli, Aspergillus flavus, Chrysosporium keratinophilum; assay: Agar plate disc-diffusion antimicrobial screen; assay type: cell-based; conditions: 10 μL of 10 mg/mL in DMSO per disc, result in words only
Description: The agar plate disc-diffusion method was applied. Sterilized filter papers (6 mm in diameter) were wetted with 10 μL of a solution of each compound to be tested, containing 10 mg/mL in DMSO, and the discs were allowed to air dry. The discs were then placed onto the surface of agar plates (nutrient agar for bacteria and Sabouraud's dextrose agar for fungi) and seeded with the test organism. Each plate contained 15 mL of the agar medium, previously seeded with 0.2 mL of the broth culture of each organism pre-grown for 18 h. The plates were incubated at 37° C. for 48 h, and 72 h for fungi. The inhibition zones were measured in mm. Discs impregnated with DMSO were used as a control, and its inhibition zone was subtracted from the tested compound actual inhibition zone.
In particular, the present 1,3-benzothiazol-2-yl-N′-[(pyridine-3-carbonyl)oxy]ethanimidamide was screened against gram positive bacteria, namely Bacillus cereus and Staphylococcus aureus, and gram-negative bacterial strains, namely Pseudomonas aeruginosa and Escherichia coli, while the antifungal activity was screened against Aspergillus flavus and Chrysosporium keratinophilum.

SMILES: COc1cccc2c1C(=O)c1c(O)c3c(c(O)c1C2=O)C[C@@](O)(C(=O)CO)C[C@@H]3O[C@H]1C[C@H](N)[C@H](O)[C@H](C)O1 [DOX, Doxorubicin, reference compound]
IC50 ([1]; Homo sapiens, MG-63, 72 h): 9.4 ± 1.1 µM | IC50 ([2]; Homo sapiens, PC-3, 72 h): 7.6 ± 0.45 µM

SMILES: NC(=NOC(=O)c1ccccc1Cl)c1nc2ccccc2s1 [N′-[(2-chlorobenzoyl)oxy]-1,3-benzothiazole-2-carboximidamide]
antimicrobial activity [3]: excellent antimicrobial activities

melting point: 150 to 152 °C
SMILES: N/C(Cc1nc2ccccc2s1)=N\OC(=O)c1cccnc1 [Present Compound, 1,3-benzothiazol-2-yl-N′-[(pyridine-3-carbonyl)oxy]ethanimidamide]
IC50 ([1]; 72 h): 3.59 ± 0.2 µM | inhibition at 10 µg/mL ([1]; Homo sapiens, 10 μg/ml, 72 h): 91.2% | inhibition at 100 µg/mL ([1]; Homo sapiens, 100 μg/ml, 72 h): 92.1% | IC50 ([1]; Homo sapiens, MG-63, 72 h): < 4 µM | antimicrobial activity [3]: high levels of antimicrobial activity | Prostate Cancer (PC-3) Inhibition % ([2]; 10 μg/ml, 72 h): 96.21% | inhibition at 10 µg/mL ([2]; Homo sapiens, PC-3, 72 h, 10 μg/ml): 96% | inhibition at 100 µg/mL ([2]; Homo sapiens, PC-3, 72 h, 100 μg/ml): 97% | IC50 ([2]; Homo sapiens, PC-3, 72 h): < 4 µM | IC50 ([2]; 72 h): 2.71 ± 0.03 µM
